The MIC is the least concentration at which growth counts as inhibited.

Converted amounts (≈) assume the structure as drawn.

Here are results for 14 molecules from ChEMBL document CHEMBL3045548, “Synthesis of some novel 1,2,4-triazole and 1,3,4-oxadiazole derivatives of biological interest” (2013).

Holding throughout (assay type): functional
Assay [1] has as its system Staphylococcus epidermidis. The assay can be described thus: Antimicrobial activity against Staphylococcus epidermidis NICM 2493 assessed as growth inhibition by two fold serial dilution method.
In assay [2] the test system is Rhizopus arrhizus. The assay can be described thus: Antimicrobial activity against Rhizopus oryzae NICM 997 assessed as growth inhibition by two-fold serial dilution method.
For assay [3], the system named is Candida albicans. The assay can be described thus: Antimicrobial activity against Candida albicans NICM 3100 assessed as growth inhibition by two-fold serial dilution method.
Assay [4] relates to Aspergillus flavus. The assay can be described thus: Antimicrobial activity against Aspergillus flavus NICM 524 assessed as growth inhibition by two fold serial dilution method.
The subject of assay [5] is Saccharomyces cerevisiae. Nature of the assay: Antimicrobial activity against Saccharomyces cerevisiae NICM 3312 assessed as growth inhibition by two fold serial dilution method.
In assay [6] the test system is Pseudomonas aeruginosa. Nature of the assay: Antimicrobial activity against Pseudomonas aeruginosa NICM 2036 assessed as growth inhibition by two-fold serial dilution method.
Assay [7] concerns Escherichia coli. The assay can be described thus: Antimicrobial activity against Escherichia coli NICM 2138 assessed as growth inhibition by two-fold serial dilution method.
The subject of assay [8] is Staphylococcus aureus. Nature of the assay: Antimicrobial activity against Staphylococcus aureus NICM 2079 assessed as growth inhibition by two fold serial dilution method.
In assay [9] the test system is Aspergillus niger. Nature of the assay: Antimicrobial activity against Aspergillus niger NICM 572 assessed as growth inhibition by two fold serial dilution method.
Assay [10] concerns Bacillus subtilis. The assay can be described thus: Antimicrobial activity against Bacillus subtilis NICM 2063 assessed as growth inhibition by two fold serial dilution method.

As to `Cc1nn(-c2ccc(-c3nnc(S)n3N)cc2)c(=O)n1N`, the minimum inhibitory concentration (MIC) in assay [1] was determined as 75 mg/L (≈ 246 µM); in [2], 18.8 mg/L (≈ 61.6 µM); in [3], 150 mg/L (≈ 493 µM); in assay [4] it was 75 mg/L (≈ 246 µM); in assay [5], 150 mg/L (≈ 493 µM); in [6] it was 18.8 mg/L (≈ 61.6 µM). Besides, the minimal inhibitory concentration (MIC) turned out to be 37.5 mg/L (≈ 123 µM) in [7], 9.37 mg/L (≈ 30.8 µM) in assay [8], 37.5 mg/L (≈ 123 µM) in [9] and 18.8 mg/L (≈ 61.6 µM) in assay [10].
For the molecule `Cc1nn(-c2ccc(-c3nnc(S)o3)cc2)c(=O)n1/N=C/c1cscn1`, the MIC worked out at 18.8 mg/L (≈ 48.6 µM) in assay [1]; 37.5 mg/L (≈ 97.3 µM) in assay [2]; 150 mg/L (≈ 389 µM) in assay [3]; 150 mg/L (≈ 389 µM) in assay [4]; 150 mg/L (≈ 389 µM) in assay [5]; 150 mg/L (≈ 389 µM) in [6]. The minimal inhibitory concentration (MIC) in [7] was 37.5 mg/L (≈ 97.3 µM); in [8], 75 mg/L (≈ 195 µM); in [9], 150 mg/L (≈ 389 µM); in assay [10] it was 37.5 mg/L (≈ 97.3 µM).
As for `Cc1nn(-c2ccc(-c3nnc(S)o3)cc2)c(=O)n1/N=C/c1ccco1`, the minimal inhibitory concentration (MIC) came out at 75 mg/L (≈ 204 µM) in [1]; 150 mg/L (≈ 407 µM) in assay [2]; 150 mg/L (≈ 407 µM) in assay [3]; 150 mg/L (≈ 407 µM) in [4]; 150 mg/L (≈ 407 µM) in assay [5]; 37.5 mg/L (≈ 102 µM) in assay [6]. Further, the MIC in assay [7] is 150 mg/L (≈ 407 µM); in assay [8] it was 37.5 mg/L (≈ 102 µM); in assay [9], 150 mg/L (≈ 407 µM); in assay [10], 150 mg/L (≈ 407 µM).
For the molecule `Cc1nn(-c2ccc(-c3nnc(S)o3)cc2)c(=O)n1/N=C/c1ccccc1Br`, the MIC was 75 mg/L (≈ 164 µM) in [1]; 37.5 mg/L (≈ 82 µM) in assay [2]; 150 mg/L (≈ 328 µM) in assay [3]; 75 mg/L (≈ 164 µM) in [4]; 150 mg/L (≈ 328 µM) in assay [5]; 150 mg/L (≈ 328 µM) in [6]. In addition, the MIC in assay [7] amounted to 150 mg/L (≈ 328 µM); in assay [8], 75 mg/L (≈ 164 µM); in assay [9], 150 mg/L (≈ 328 µM); in assay [10] it was 75 mg/L (≈ 164 µM).
Regarding `Cc1nn(-c2ccc(-c3nnc(S)o3)cc2)c(=O)n1/N=C/c1ccc(F)cc1`, the MIC in assay [1] worked out at 150 mg/L (≈ 378 µM); in assay [2], 75 mg/L (≈ 189 µM); in assay [3] it was 150 mg/L (≈ 378 µM); in assay [4] it was 75 mg/L (≈ 189 µM); in assay [5], 150 mg/L (≈ 378 µM); in assay [6], 75 mg/L (≈ 189 µM). In addition, the MIC in assay [7] was found to be 37.5 mg/L (≈ 94.6 µM); in [8], 150 mg/L (≈ 378 µM); in [9], 75 mg/L (≈ 189 µM); in assay [10], 75 mg/L (≈ 189 µM).
Take `Cc1nn(-c2ccc(-c3nnc(S)o3)cc2)c(=O)n1/N=C/c1cc(F)ccc1F`: the MIC stood at 18.8 mg/L (≈ 45.2 µM) in assay [1]; 18.8 mg/L (≈ 45.2 µM) in assay [2]; 18.8 mg/L (≈ 45.2 µM) in assay [3]; 9.37 mg/L (≈ 22.6 µM) in assay [4]; 150 mg/L (≈ 362 µM) in [5]; 75 mg/L (≈ 181 µM) in [6]. For the same molecule, the MIC was found to be 150 mg/L (≈ 362 µM) in assay [7], 75 mg/L (≈ 181 µM) in assay [8], 37.5 mg/L (≈ 90.5 µM) in assay [9] and 37.5 mg/L (≈ 90.5 µM) in assay [10].
For `Cc1nn(-c2ccc(-c3nnc(S)o3)cc2)c(=O)n1/N=C/c1cccc(F)c1`, the MIC in assay [1] turned out to be 37.5 mg/L (≈ 94.6 µM); in [2] it was 150 mg/L (≈ 378 µM); in assay [3] it was 150 mg/L (≈ 378 µM); in [4], 150 mg/L (≈ 378 µM); in assay [5] it was 75 mg/L (≈ 189 µM); in [6] it was 75 mg/L (≈ 189 µM). Moreover, the MIC was 9.37 mg/L (≈ 23.6 µM) in [7], 9.37 mg/L (≈ 23.6 µM) in assay [8], 150 mg/L (≈ 378 µM) in [9] and 18.8 mg/L (≈ 47.3 µM) in assay [10].
For `Cc1nn(-c2ccc(-c3nnc(S)o3)cc2)c(=O)n1/N=C/c1ccccc1F`, the MIC in assay [1] was 150 mg/L (≈ 378 µM); in assay [2], 9.37 mg/L (≈ 23.6 µM); in assay [3], 150 mg/L (≈ 378 µM); in [4], 37.5 mg/L (≈ 94.6 µM); in assay [5], 75 mg/L (≈ 189 µM); in assay [6] it was 75 mg/L (≈ 189 µM). Further, the MIC was 75 mg/L (≈ 189 µM) in assay [7], 37.5 mg/L (≈ 94.6 µM) in assay [8], 75 mg/L (≈ 189 µM) in assay [9] and 75 mg/L (≈ 189 µM) in assay [10].
`CCOC(=O)CSc1nnc(-c2ccc(-n3nc(C)n(N)c3=O)cc2)o1`: the MIC is 75 mg/L (≈ 199 µM) in [1]; 150 mg/L (≈ 399 µM) in assay [2]; 150 mg/L (≈ 399 µM) in assay [3]; 150 mg/L (≈ 399 µM) in assay [4]; 150 mg/L (≈ 399 µM) in assay [5]; 75 mg/L (≈ 199 µM) in assay [6]. In addition, the MIC in [7] was 37.5 mg/L (≈ 99.6 µM); in [8], 18.8 mg/L (≈ 49.8 µM); in [9], 150 mg/L (≈ 399 µM); in [10], 37.5 mg/L (≈ 99.6 µM).
For the molecule `Cc1nn(-c2ccc(-c3nnc(S)o3)cc2)c(=O)n1N`, the MIC in [1] worked out at 150 mg/L (≈ 517 µM); in [2], 75 mg/L (≈ 258 µM); in assay [3], 37.5 mg/L (≈ 129 µM); in assay [4], 150 mg/L (≈ 517 µM); in [5] it was 150 mg/L (≈ 517 µM); in assay [6], 37.5 mg/L (≈ 129 µM). Also, the MIC in assay [7] turned out to be 75 mg/L (≈ 258 µM); in assay [8] it was 75 mg/L (≈ 258 µM); in assay [9], 150 mg/L (≈ 517 µM); in assay [10], 37.5 mg/L (≈ 129 µM).
Regarding `CSc1nnc(-c2ccc(-n3nc(C)n(N)c3=O)cc2)o1`, the MIC in [1] came to 75 mg/L (≈ 246 µM); in assay [2], 37.5 mg/L (≈ 123 µM); in assay [3], 150 mg/L (≈ 493 µM); in assay [4] it was 150 mg/L (≈ 493 µM); in assay [5] it was 150 mg/L (≈ 493 µM); in assay [6] it was 75 mg/L (≈ 246 µM). Besides, the MIC amounted to 75 mg/L (≈ 246 µM) in assay [7], 37.5 mg/L (≈ 123 µM) in assay [8], 150 mg/L (≈ 493 µM) in assay [9] and 150 mg/L (≈ 493 µM) in [10].
As to `C[C@@H]1[C@H](O)[C@@H](C)/C=C/C=C/C=C/C=C/C=C/C=C/C=C/[C@H](O[C@@H]2O[C@H](C)[C@@H](O)[C@H](N)[C@@H]2O)C[C@@H]2O[C@](O)(C[C@@H](O)C[C@@H](O)[C@H](O)CC[C@@H](O)C[C@@H](O)CC(=O)O[C@H]1C)C[C@H](O)[C@H]2C(=O)O` [AMPHOTERICIN B], the MIC in assay [2] is 1.56 mg/L (≈ 1.69 µM); in assay [3] it was 6.25 mg/L (≈ 6.76 µM); in assay [4], 6.25 mg/L (≈ 6.76 µM); in assay [5], 6.25 mg/L (≈ 6.76 µM); in assay [9] it was 1.56 mg/L (≈ 1.69 µM).
For `CC1(C)S[C@@H]2[C@H](NC(=O)Cc3ccccc3)C(=O)N2[C@H]1C(=O)O` [PENICILLIN G], the MIC in assay [1] worked out at 3.12 mg/L (≈ 9.35 µM); in assay [6], 9.37 mg/L (≈ 28 µM); in assay [7] it was 6.25 mg/L (≈ 18.7 µM); in [8], 6.25 mg/L (≈ 18.7 µM); in assay [10] it was 1.53 mg/L (≈ 4.56 µM).
For `CN[C@@H]1[C@H](O[C@H]2[C@H](O[C@H]3[C@H](O)[C@@H](O)[C@H](N=C(N)N)[C@@H](O)[C@@H]3N=C(N)N)O[C@@H](C)[C@]2(O)C=O)O[C@@H](CO)[C@H](O)[C@H]1O` [STREPTOMYCIN], the MIC in assay [1] worked out at 1.56 mg/L (≈ 2.69 µM); in [6], 3.12 mg/L (≈ 5.37 µM); in assay [7], 3.12 mg/L (≈ 5.37 µM); in assay [8] it was 1.56 mg/L (≈ 2.68 µM); in assay [10], 6.25 mg/L (≈ 10.7 µM).
